Experiments:
4T1 breast tumors = assay: In vivo and intra-operative tumor detection with handheld spectroscopic pen device; design: species or system mouse; settings: ICG 357 μg/kg i.v.
Description: All in vivo murine studies were performed under an approved protocol by the Emory University IACUC. The mouse mammary carcinoma cell line 4T1, which stably expresses a firefly luciferase gene, was obtained from Dr. Lily Yang at Emory University (Atlanta, Ga.). 4T1 cells were cultured in DMEM containing 10% FBS and 1× antibiotic/antimycotic agent. Prior to injection into mice, the cells were washed two times with PBS and diluted in sterile PBS to a final concentration of 2×10^7 cells/mL. Mammary tumors were inoculated into nude mice by the subcutaneous administration of 2×10^6 4T1 cells into the mouse flank. Once the tumors were approximately 4 mm in diameter, ICG was administered intravenously (i.v.) via a tail vein at a dose of 357 μg/kg. After 24 h, mice were anesthetized by intraperitoneal (i.p.) injection of a 2.5% solution of tribromoethanol (350 mg/kg). Tumor-bearing mice undergoing bioluminescence imaging were administered i.p. 100 μL, of a luciferin solution (30 mg/mL). Bioluminescent images were acquired on a Kodak In-Vivo FX Imaging System from Carestream Molecular Imaging (Rochester, N.Y.). Corresponding bright-field images were taken for anatomical reference of the bioluminescence signal. A series of spectra were acquired on tumor-bearing mice using the handheld spectroscopic pen device. First, the position of the handheld spectroscopic pen device was fixed to about 1-2 cm above the location of the acquisition area on the mouse. Spectra were collected in 1 s and were obtained from several locations, including directly over the center of the tumor and the peritumoral region. After the spectra were acquired, the integrated signal intensity was calculated. The signal intensity was compared to both the bright-field anatomical location and the bioluminescence signal.
In vivo investigations were conducted to test the ability of the handheld spectroscopic pen device to detect intratumoral deposition of ICG after intravenous infusion. This contrast agent has been approved by the U.S. Food and Drug Administration (FDA) and is indicated for various uses in humans, such as for determining cardiac output, hepatic function and liver blood flow, and for ophthalmic angiography. To assess degree of tumor contrast enhancement using ICG, mice were used in which 4T1 tumor cells (2×10^6 in number) were subcutaneously injected 18 days prior to imaging. The tumor cells were genetically engineered to express the firefly luciferase gene; intravenous injection of luciferin after tumor development causes these cells to emit bioluminescent light and allows one to determine the precise location of tumors using bioluminescence imaging. […]

[1] = Inspection of internal organs and behavior for toxicity in Apcmin/+ mice
Description: This study was conducted in two mice. Two mice were injected with 2 mg/kg ICG. One mouse received ICG intravenously via a tail vein. The other mouse was administered ICG intraperitoneally. After ICG had circulated for 20 h, the mice were euthanized, the lower GI was removed, washed extensively, sectioned roughly into four segments; duodenum, jejunum, ilium, and cecum and colon, and formalin fixed. The mice were then imaged using the integrated imaging and spectroscopy imaging system as provided in this disclosure.
Since these doses were at the maximum recommended dose, the internal organs were briefly inspected for any aberrant signs of toxicity.

[2] = Optical properties of ICG; format: physicochemical; settings: 785 nm excitation
Excerpt: The ability of the handheld spectroscopic pen device to differentiate contrast agent signals from the autofluorescence and Raman scattering of major tissue/organ types (i.e. fat, liver and lung) was first examined. […] At 785 nm excitation, ICG has a fluorescence peak at 816 nm, while fat has a background fluorescence peak at 805 nm plus resolvable Raman signals at 862, 1070, 1297, 1439, and 1652 cm^−1 (corresponding to 842, 857, 874, 885, and 902 nm in wavelength, respectively). ICG buried in fat has identifiable contributions of both ICG and fat (e.g., ICG fluorescence at 816 nm and the fat Raman peaks at 874 and 885 nm).

polyps = assay: Detection of murine GI polyps (Apcmin/+ FAP model) with SpectroPen; format: in vivo, mouse
Description: This example describes the detection of polyps in the murine FAP model, Apcmin/+. This study was conducted in two mice. Two mice were injected with 2 mg/kg ICG. One mouse received ICG intravenously via a tail vein. The other mouse was administered ICG intraperitoneally. After ICG had circulated for 20 h, the mice were euthanized, the lower GI was removed, washed extensively, sectioned roughly into four segments; duodenum, jejunum, ilium, and cecum and colon, and formalin fixed. The mice were then imaged using the integrated imaging and spectroscopy imaging system as provided in this disclosure.
Intestinal segments were rinsed with PBS. […] Next the “SpectroPen” handheld probe was placed 1 cm above the intestinal tissue and clamped into that position for consistent repetitive acquisitions. The 1 cm space between the SpectroPen and the tissue correlates roughly to a 1 mm laser spot size. • 3. Spectra were acquired and recorded from apparently healthy sections of the intestine (considered background signal), and polyps. An integration time of 1 s was utilized. • 4.

[3] = stated as known; cited from earlier work
[4] = after intravenous administration, bound to serum proteins; cited from earlier work

fluorescence peak [2]: 816 nm
Structure (SMILES): CC1(C)C(/C=C/C=C/C=C/C=C2\N(CCCCS(=O)(=O)O)c3ccc4ccccc4c3C2(C)C)=[N+](CCCCS(=O)(=O)[O-])c2ccc3ccccc3c21 [ICG, Indocyanine green]
signal of excised tumors vs surgical cavity (4T1 breast tumors; after surgical removal): 10 fold
integrated signal intensity, tumor areas vs normal regions (4T1 breast tumors; mice with 4T1 tumors, 24 h): ~10 times
signal at adjacent edges (less than 2 mm from the tumor) vs more remote areas (4T1 breast tumors; mice with 4T1 tumors, 24 h): 5-6 times
ICG signal at positive surgical margin vs adjacent tissue (4T1 breast tumors; residual tumor at margin of cavity): 5 times
appearance of internal organs ([1]; 2 mg/kg ICG intraperitoneally, 20 h, patent attributes to anemia from polyps): pale color was immediately noticed, especially in the liver and kidneys
behavioral changes ([1]; 2 mg/kg ICG via tail vein): no dramatic behavioral changes
ICG signal in polyps vs background (polyps; 2 mg/kg ICG intraperitoneally, 20 h, GI tract ex vivo): greater than in the background
ICG signal in polyps vs background tissue (polyps; 2 mg/kg ICG intravenously, 20 h, GI tract ex vivo): higher signal in polyps then in the background tissue
signal in GI tract, i.p. vs i.v. route (polyps; 2 mg/kg ICG, 20 after injection): larger signal in the GI tract compared to mouse injected i.v.
signal from colon polyp compared to background (polyps; Apcmin/+ mouse, colon, 2 mg/kg ICG i.v., 20 h): ≥ 5 fold
route of excretion [3]: secreted entirely into bile
hydrodynamic size (diameter) after protein binding [4]: 6-8 nm

Source: patent publication US9345389B2, “Additional systems and methods for providing real-time anatomical guidance in a diagnostic or therapeutic procedure” (EMORY UNIVERSITY, priority 2010, dated 2016)
